# Assays:
# Type in all cases: functional
# Enterococcus faecalis [1] = assay: Antibacterial activity against Enterococcus faecalis ATCC 51299 assessed as inhibition of bacterial growth incubated for 24 hrs by microdilution assay
# Enterococcus faecalis [2] = assay: Bactericidal activity against Enterococcus faecalis ATCC 51299 assessed as bacterial killing incubated for 24 hrs by microdilution assay
# Escherichia coli [3] = assay: Antibacterial activity against Escherichia coli EOL 931 assessed as inhibition of bacterial growth incubated for 24 hrs by microdilution assay
# Streptococcus mutans [4] = assay: Bactericidal activity against Streptococcus mutans ATCC 25175 assessed as bacterial killing incubated for 24 hrs by microdilution assay
# Streptococcus agalactiae [5] = assay: Bactericidal activity against Streptococcus agalactiae ATCC 13813 assessed as bacterial killing incubated for 24 hrs by microdilution assay
# Escherichia coli [6] = assay: Antibacterial activity against Escherichia coli EIEC E20851 assessed as inhibition of bacterial growth incubated for 24 hrs by microdilution assay
# Streptococcus sobrinus [7] = assay: Antibiofilm activity against drug-resistant Streptococcus sobrinus ATCC 27351 assessed as inhibition of biofilm formation incubated for 24 hrs by crystal violet staining based microtiter plate method
# Enterococcus durans [8] = assay: Antibiofilm activity against drug-resistant Enterococcus durans BIO01 assessed as inhibition of biofilm formation incubated for 24 hrs by crystal violet staining based microtiter plate method
# Streptococcus pyogenes [9] = assay: Bactericidal activity against Streptococcus pyogenes ATCC 19615 assessed as bacterial killing incubated for 24 hrs by microdilution assay
# Staphylococcus aureus [10] = assay: Antimicrobial activity against Staphylococcus aureus MED 55 assessed assessed as reduction in bacterial growth at 1/4 times of drug MIC in the presence of Oxacillin by microdilution method
# Salmonella typhimurium = assay: Antibacterial activity against Salmonella enterica subsp. enterica serovar Typhimurium ATCC 14028 assessed as inhibition of bacterial growth incubated for 24 hrs by microdilution assay
# Streptococcus mutans [11] = assay: Antimicrobial activity against Streptococcus mutans ATCC 25175 assessed assessed as reduction in bacterial growth at 1/8 times of drug MIC in the presence of Ampicillin by microdilution method
# Escherichia coli [12] = assay: Antibacterial activity against Escherichia coli ATCC 35218 assessed as inhibition of bacterial growth incubated for 24 hrs by microdilution assay
# Enterococcus faecalis [13] = assay: Antimicrobial activity against Enterococcus faecalis ATCC 51299 assessed assessed as reduction in bacterial growth at 1/4 times of drug MIC in the presence of Teicoplanin by microdilution method
# Streptococcus mutans [14] = assay: Ratio of MBC to MIC against Streptococcus mutans ATCC 25175
# Streptococcus agalactiae [15] = assay: Antimicrobial activity against Streptococcus agalactiae ATCC 13813 assessed assessed as reduction in bacterial growth at 1/8 times of drug MIC in the presence of Oxacillin by microdilution method
# Staphylococcus aureus [16] = assay: Antimicrobial activity against Staphylococcus aureus MED 55 assessed assessed as reduction in bacterial growth at 1/2 times of drug MIC in the presence of Oxacillin by microdilution method
# [17] = tested on: Staphylococcus epidermidis; assay: Antibiofilm activity against drug-resistant Staphylococcus epidermidis 70 D assessed as inhibition of biofilm formation incubated for 24 hrs by crystal violet staining based microtiter plate method
# Staphylococcus aureus [18] = assay: Bactericidal activity against Staphylococcus aureus ATCC 43300 assessed as bacterial killing incubated for 24 hrs by microdilution assay
# Streptococcus agalactiae [19] = assay: Ratio of MBC to MIC against Streptococcus agalactiae ATCC 13813
# Streptococcus pyogenes [20] = assay: Antibacterial activity against Streptococcus pyogenes ATCC 19615 assessed as inhibition of bacterial growth incubated for 24 hrs by microdilution assay
# Streptococcus agalactiae [21] = assay: Antimicrobial activity against Streptococcus agalactiae ATCC 13813 assessed assessed as reduction in bacterial growth at 1/4 times of drug MIC in the presence of Oxacillin by microdilution method
# Proteus mirabilis = assay: Antibacterial activity against Proteus mirabilis ATCC 25933 assessed as inhibition of bacterial growth incubated for 24 hrs by microdilution assay
# Serratia marcescens = assay: Antibacterial activity against Serratia marcescens ATCC 13880 assessed as inhibition of bacterial growth incubated for 24 hrs by microdilution assay; details: subsp. marcescens ATCC 13880
# Enterococcus durans [22] = assay: Ratio of MBC to MIC against Enterococcus durans BIO 0114
# [23] = tested on: Staphylococcus epidermidis; assay: Bactericidal activity against Staphylococcus epidermidis 70 D assessed as bacterial killing incubated for 24 hrs by microdilution assay
# [24] = tested on: Staphylococcus epidermidis; assay: Ratio of MBC to MIC against Staphylococcus epidermidis 70 D
# Streptococcus sobrinus [25] = assay: Antibacterial activity against Streptococcus sobrinus ATCC 27351 assessed as inhibition of bacterial growth incubated for 24 hrs by microdilution assay
# Escherichia coli [26] = assay: Antibacterial activity against Escherichia coli ETEC 2589093 assessed as inhibition of bacterial growth incubated for 24 hrs by microdilution assay
# [27] = tested on: Staphylococcus epidermidis; assay: Antimicrobial activity against Staphylococcus epidermidis ATCC 12228 assessed assessed as reduction in bacterial growth at 1/4 times of drug MIC in the presence of Oxacillin by microdilution method
# Escherichia coli [28] = assay: Antibacterial activity against Escherichia coli EAEC I 4913 assessed as inhibition of bacterial growth incubated for 24 hrs by microdilution assay
# Escherichia coli [29] = assay: Antibacterial activity against Escherichia coli STEC 2C1 assessed as inhibition of bacterial growth incubated for 24 hrs by microdilution assay
# Enterococcus durans [30] = assay: Antibacterial activity against Enterococcus durans BIO 0114 assessed as inhibition of bacterial growth incubated for 24 hrs by microdilution assay
# Staphylococcus aureus [31] = assay: Antibiofilm activity against drug-resistant Staphylococcus aureus MED 55 assessed as inhibition of biofilm formation incubated for 24 hrs by crystal violet staining based microtiter plate method
# Streptococcus mutans [32] = assay: Antibiofilm activity against drug-resistant Streptococcus mutans ATCC 25175 assessed as inhibition of biofilm formation incubated for 24 hrs by crystal violet staining based microtiter plate method
# Streptococcus pyogenes [33] = assay: Ratio of MBC to MIC against Streptococcus pyogenes ATCC 19615
# Streptococcus sobrinus [34] = assay: Bactericidal activity against Streptococcus sobrinus ATCC 27351 assessed as bacterial killing incubated for 24 hrs by microdilution assay
# [35] = tested on: Staphylococcus epidermidis; assay: Ratio of MBC to MIC against Staphylococcus epidermidis ATCC 12228
# Streptococcus sobrinus [36] = assay: Antimicrobial activity against Streptococcus sobrinus ATCC 27351 assessed assessed as reduction in bacterial growth at 1/4 times of drug MIC in the presence of Ampicillin by microdilution method
# Staphylococcus aureus [37] = assay: Antibacterial activity against Staphylococcus aureus ATCC 43300 assessed as inhibition of bacterial growth incubated for 24 hrs by microdilution assay
# Pseudomonas aeruginosa = assay: Antibacterial activity against Pseudomonas aeruginosa ATCC 27853 assessed as inhibition of bacterial growth incubated for 24 hrs by microdilution assay
# Streptococcus mutans [38] = assay: Antimicrobial activity against Streptococcus mutans ATCC 25175 assessed assessed as reduction in bacterial growth at 1/4 times of drug MIC in the presence of Ampicillin by microdilution method
compound,measurement,setting,value
CC(C)=CCC/C(C)=C/CC/C(C)=C/CO [FARNESOL],MIC,Enterococcus faecalis [1],128 µg/mL
same,MBC,Enterococcus faecalis [2],> 512 µg/mL
same,MIC,Escherichia coli [3],> 1020 µg/mL
same,MBC,Streptococcus mutans [4],> 512 µg/mL
same,MBC,Streptococcus agalactiae [5],32 µg/mL
same,MIC,Escherichia coli [6],> 1020 µg/mL
same,MIC,Streptococcus sobrinus [7],8 µg/mL
same,MIC,Enterococcus durans [8],64 µg/mL
same,MBC,Streptococcus pyogenes [9],64 µg/mL
same,MIC,Staphylococcus aureus [10],128 µg/mL
same,MIC,Salmonella typhimurium,> 1020 µg/mL
same,MIC,Streptococcus mutans [11],0.5 µg/mL
same,MIC,Escherichia coli [12],> 1020 µg/mL
same,MIC,Enterococcus faecalis [13],1 µg/mL
same,Ratio,Streptococcus mutans [14],4
same,MIC,Streptococcus agalactiae [15],0.25 µg/mL
same,MIC,Staphylococcus aureus [16],128 µg/mL
same,MIC,[17],64 µg/mL
same,MBC,Staphylococcus aureus [18],512 µg/mL
same,Ratio,Streptococcus agalactiae [19],2
same,MIC,Streptococcus pyogenes [20],16 µg/mL
same,MIC,Streptococcus agalactiae [21],0.25 µg/mL
same,MIC,Proteus mirabilis,> 1020 µg/mL
same,MIC,Serratia marcescens,> 1020 µg/mL
same,Ratio,Enterococcus durans [22],>4
same,MBC,[23],128 µg/mL
same,Ratio,[24],2
same,MIC,Streptococcus sobrinus [25],8 µg/mL
same,MIC,Escherichia coli [26],> 1020 µg/mL
same,MIC,[27],0.25 µg/mL
same,MIC,Escherichia coli [28],> 1020 µg/mL
same,MIC,Escherichia coli [29],> 1020 µg/mL
same,MIC,Enterococcus durans [30],64 µg/mL
same,MIC,Staphylococcus aureus [31],2 µg/mL
same,MIC,Streptococcus mutans [32],128 µg/mL
same,Ratio,Streptococcus pyogenes [33],4
same,MBC,Streptococcus sobrinus [34],16 µg/mL
same,Ratio,[35],>4
same,MIC,Streptococcus sobrinus [36],0.125 µg/mL
same,MIC,Staphylococcus aureus [37],128 µg/mL
same,MIC,Pseudomonas aeruginosa,> 1020 µg/mL
same,MIC,Streptococcus mutans [38],0.5 µg/mL

# From ChEMBL document CHEMBL4825691, “Antimicrobial, modulatory, and antibiofilm activity of tt-farnesol on bacterial and fungal strains of importance to human health” (2021)
